Like-named read-outs stand apart in the source and are kept apart here.
Tests used:
in vivo = settings: mouse, po
Description: Acute toxicity by oral route was investigated using ICR-JCL mice.
The compounds of the present invention, Compound Nos. 1, 2, 13, 14, 33, 34, 41, 42, 47, 48, 53, 54, 67, and 68, were dissolved or dispersed in polyethylene glycol 200 or physiological saline. The solution or suspension was given in a prescribed amount by means of a syringe or a stomach tube.

[1] = test system: Candida albicans (IFO 1060); experiment: Antimycotic activity: survival of mice infected with Candida albicans; type: in vivo; settings: IFO1060, 480 h, female ICR mice, oral, 100 mg/kg day for 5 consecutive days, observed for 20 days, control and solvent control 20, read-out: Survival Rate (%)
Description: The evaluation of antimycotic activity can be carried out by administering a dosage of the compound in […] that have been inoculated with a strain of Candida albicans, preferably orally, and observing the mortality of the inoculated mice for 20 days.
The survival rate was calculated from the mean survival days.
Five-week-old female ICR mice of 10 animals per group were infected with Candida albicans (IFO 1060) in an amount of 4.8×10^6 cfu (colony forming unit)/mouse through a tail vein.
After one hour following the introduction of the infection, a solution of each compound (see Table 8 below) in polyethylene glycol 200 was orally administered for 5 consecutive days in the amount of 100 mg/kg day.
In Table 8, the solvent group was administered only with polyethylene glycol.

[2] = test system: spontaneous mastocarcinoma; experiment: Antitumor effects: tumor growth inhibition in rats with mastocarcinoma; type: in vivo, Sprague-Dawley rats; settings: Rattus norvegicus, ip, read-out: Tumor growth inhibition rate (%)
Description: Fifty-day-old female Sprague-Dawley rats were orally given 7,12-dimethylbenzanthracene (15 mg/kg) and observed for two months. Those rats developing spontaneous mastocarcinoma were selected and divided into groups each consisting of 15 animals: groups each of which is to be given a different compound of the present invention; a group to be given a control compound; and a control group to be given a simple physiological saline solution. Each group was intraperitoneally given the corresponding physiological saline solution or dispersion in an amount of 25 mg/kg daily for 20 consecutive days. Five days after the last administration, the rats were sacrificed to weigh the tumors. The mean tumor weight (T) of the 15 rats of each of the groups which had been given compounds of the present invention or the control compound, and the mean tumor weight (C) of the 15 rats of the control group which had been given a simple physiological saline solution were calculated. The tumor growth inhibition rate of each group was calculated on the basis of the following formula:
Tumor Growth Inhibition Rate (%) = {1-T/C)} × 100. Positive control is 4-hydroxyandrostenedione.

aromatase = target: T1, aromatase (Homo sapiens, UniProt P11511); experiment: Aromatase inhibitory activity (human placenta microsomes, [19-14C]4-androstene-3,17-dione); type: biochemical
T1 construct: human placenta microsomes (a protein concentration of 0.1 mg/ml); from tissue; host or cells: human placenta microsomes
T1 sequence (P11511 1-503): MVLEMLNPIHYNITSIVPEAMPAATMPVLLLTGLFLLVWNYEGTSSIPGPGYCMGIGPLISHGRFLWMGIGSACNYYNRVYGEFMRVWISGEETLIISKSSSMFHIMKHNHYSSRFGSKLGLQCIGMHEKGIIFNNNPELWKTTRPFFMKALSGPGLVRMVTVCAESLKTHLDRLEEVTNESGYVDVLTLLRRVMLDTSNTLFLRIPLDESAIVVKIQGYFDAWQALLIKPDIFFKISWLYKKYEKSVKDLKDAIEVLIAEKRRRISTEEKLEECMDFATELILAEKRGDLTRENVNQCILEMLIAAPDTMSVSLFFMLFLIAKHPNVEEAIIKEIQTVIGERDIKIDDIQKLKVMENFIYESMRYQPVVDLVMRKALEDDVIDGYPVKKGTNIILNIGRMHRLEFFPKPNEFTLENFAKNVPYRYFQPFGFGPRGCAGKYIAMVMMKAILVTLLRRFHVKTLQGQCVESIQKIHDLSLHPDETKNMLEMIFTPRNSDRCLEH
Description: The aromatase enzyme-inhibitory activity was determined in the manner described by Covey, D. F., Biochem. Biophys. Res. Commu., 157 (1), 81-86, 1988. More specifically, the aromatase-inhibitory activity of a compound of formula (I) was evaluated in terms of the concentration (IC50) of the compound causing 50% inhibition of the aromatase activity.
Aromatase activity was determined in the manner described by Covey, D. F., Biochem. Biophys. Res. Commun. 157 (1), 81-86 (1988).
Aromatase inhibitory activity of the compounds was evaluated in the 50% aromarase-inhibitory concentration (IC50). Microsomes of human-placenta and [19-^14 C]4-androstene-3,17 dione were used as an aromatase source and a substrate, respectively.
The radioactivity of H^14 COOH which was released into a reaction mixture as a result of aromatization was measured to evaluate the aromatase activity.
The aromatase inhibitory activity and the concentration of each compound was depicted in a graph, from which the IC50 was determined.
[19-^14 C]4-Androstene-3,17-dione (1×10^-6 M, 2 KBq/ml), human placenta microsomes (a protein concentration of 0.1 mg/ml), coenzyme NADP (2×10^-3 M), glucose-6-phosphoric acid (4×10^-3 M), and glucose-6-phosphoric acid dehydrogenase (4U/ml) were added to a phosphoric acid buffer solution (67 mM, pH 7.2, 0.5 ml) and reacted at 37° C. for 30 minutes while the mixture was being shaken.
The test compound dissolved in DMSO was added to the reaction mixture and the final concentration of DMSO was in the range of 0.1 to 0.55% by volume per volume.
Chloroform (5 ml) was then added to the reaction mixtures to cease the reaction. The H^14 COOH, which had been released into a reaction mixture, was recovered in a water layer by stirring the reaction mixture. The water layer (0.1 ml) was added to a liquid scintillation cocktail (Atomlight, Dupont, 4 ml) to measure its radioactivity.
The positive control is 4-hydroxyandrostenedione.

[3] = female Sprague-Dawley rats given 7,12-dimethylbenzanthracene, intraperitoneal, 25 mg/kg daily for 20 consecutive days, mean tumor weight vs saline control
[4] = human placenta microsomes, substrate 1×10^-6 M, pH 7.2, 37° C., 30 minutes, read-out: IC50

Row | SMILES | LD50 at 168 h (in vivo) [mg/kg] | responders at 100 mg/kg [1] [%] | inhibition in vivo at 25 mg/kg [2, 3] [%] | IC50 (aromatase) [nM] | IC50 (aromatase; [4]) [nM] | inhibition in vivo at 25 mg/kg [2] [%]
1 | CC1OCC(Cc2ccc(F)cc2)C1(O)Cn1cncn1 (stereo not drawn) [Compound No. 1, 4-(4-fluorobenzyl)-3-hydroxy-2-methyl-3-(1H-1,2,4-triazol-1-ylmethyl) tetrahydrofuran] | > 1000 | 40 | 60 | 6000 |  | 
2 | CC1(C)OCC(Cc2ccc(F)cc2)C1(O)Cn1cncn1 (stereo not drawn) [Compound No. 13, 4-(4-fluorobenzyl)-3-hydroxy-2,2-dimethyl-3 (1H-1,2,4-triazole-1-ylmethyl) tetrahydrofuran] | > 1000 | 55 | 58 | 5300 |  | 
3 | CC1(C)OCC(Cc2ccc(F)cc2)C1(O)Cn1ccnc1 (stereo not drawn) [Compound No. 14, 4-(4-fluorobenzyl)-3-hydroxy-3-(imidazol-1-ylmethyl)-2,2-dimethyltetrahydrofuran] | > 1000 | 70 | 63 | 480 |  | 
4 | CC1(C)OCC(Cc2ccc(Cl)cc2)C1(O)Cn1cncn1 (stereo not drawn) [Compound No. 33, 4-(4-chlorobenzyl)-3-hydroxy-2,2-dimethyl-3-(1H-1,2,4-triazol-1-ylmethyl) tetrahydrofuran] | > 1000 | 60 | 65 | 7000 |  | 
5 | CC1(C)OCC(Cc2ccc(Cl)cc2)C1(O)Cn1ccnc1 (stereo not drawn) [Compound No. 34, 4-(4-chlorobenzyl)-3-hydroxy-3-(1H-imidazol-l-ylmethyl) -2,2-dimethyltetrahydrofuran] | > 1000 | 80 | 80 | 500 |  | 
6 | CC1(C)OCC(Cc2ccc(C#N)cc2)C1(O)Cn1cncn1 (stereo not drawn) [Compound No. 53] | > 1000 | 42 | 60 | 1200 |  | 
7 | CC1(C)OCC(Cc2ccc(C#N)cc2)C1(O)Cn1ccnc1 (stereo not drawn) [Compound No. 54] | > 1000 | 40 | 73 |  | 1000 | 
8 | CC1(C)OCC(Cc2ccccc2-c2ccccc2)C1(O)Cn1cncn1 (stereo not drawn) [Compound No. 67] | > 1000 | 53 | 74 | 4700 |  | 
9 | CC1(C)OCC(Cc2ccccc2-c2ccccc2)C1(O)Cn1ccnc1 (stereo not drawn) [Compound No. 68] | > 1000 | 62 | 85 |  | 350 | 
10 | C[C@]12CCC(=O)C(O)=C1CC[C@@H]1[C@@H]2CC[C@]2(C)C(=O)CC[C@@H]12 [Positive Control, 4-hydroxyandrostenedione, reference compound] |  |  |  |  |  | 48
11 | CC1OCC(Cc2ccc(F)cc2)C1(O)Cn1ccnc1 (stereo not drawn) [compound 2, 4-(4-fluorobenzyl)-3-hydroxy-3-(imidazol-1-ylmethyl)-2-methyl tetrahydrofuran] | > 1000 | 55 | 54 |  | 530 | 
12 | OC1(Cn2cncn2)COCC1Cc1ccc(F)cc1 (stereo not drawn) [compound 21] |  | 37 | 72 |  | 4700 | 
13 | OC1(Cn2ccnc2)COCC1Cc1ccc(F)cc1 (stereo not drawn) [compound 22] |  | 46 | 75 |  | 630 | 
14 | CC1(C)OCC(Cc2ccc(F)cc2F)C1(O)Cn1cncn1 (stereo not drawn) [compound 41] | > 1000 | 56 | 48 | 3000 |  | 
15 | CC1(C)OCC(Cc2ccc(F)cc2F)C1(O)Cn1ccnc1 (stereo not drawn) [compound 42] | > 1000 | 63 | 56 | 270 |  | 
16 | CC1(C)OCC(Cc2ccc(Cl)cc2Cl)C1(O)Cn1cncn1 (stereo not drawn) [compound 47] | > 1000 | 58 | 55 | 1000 |  | 
17 | CC1(C)OCC(Cc2ccc(Cl)cc2Cl)C1(O)Cn1ccnc1 (stereo not drawn) [compound 48] | > 1000 | 53 | 70 | 1500 |  | 

Source: patent US5462957A, “Azole derivatives, pharmaceutical compositions containing the same, and method for treating mycosis and estrogen-dependent diseases” (Kureha Chemical Industry Co., Ltd., priority 1992, dated 1995)
